Data as given in US20030212123A1, “COX-2 selective carprofen for treating pain and inflammation in dogs” (Pfizer Inc., priority 1997, published 2003).
Read-outs that look alike come from different tables or passages of the source.

Experiments:
COX-1 = target: T1, COX-1 (Canis lupus familiaris, UniProt Q8HZR1); assay: Canine whole blood ex vivo COX-1 activity (A23187-stimulated TXB2), Example 2; assay type: in vivo, dog; settings: for TXB2 Pg/mL/Well: group average; for inhibition at 2 mg/kg / inhibition at 10 mg/kg: dog, po, based on zero hour value, read-out: COX-1 activity Percent Inhibition
T1 construct: using an ex vivo procedure on canine whole blood; from tissue; host or cells: whole blood of dosed dogs, stimulated with calcium ionophore A23187
T1 sequence (Q8HZR1 28-603): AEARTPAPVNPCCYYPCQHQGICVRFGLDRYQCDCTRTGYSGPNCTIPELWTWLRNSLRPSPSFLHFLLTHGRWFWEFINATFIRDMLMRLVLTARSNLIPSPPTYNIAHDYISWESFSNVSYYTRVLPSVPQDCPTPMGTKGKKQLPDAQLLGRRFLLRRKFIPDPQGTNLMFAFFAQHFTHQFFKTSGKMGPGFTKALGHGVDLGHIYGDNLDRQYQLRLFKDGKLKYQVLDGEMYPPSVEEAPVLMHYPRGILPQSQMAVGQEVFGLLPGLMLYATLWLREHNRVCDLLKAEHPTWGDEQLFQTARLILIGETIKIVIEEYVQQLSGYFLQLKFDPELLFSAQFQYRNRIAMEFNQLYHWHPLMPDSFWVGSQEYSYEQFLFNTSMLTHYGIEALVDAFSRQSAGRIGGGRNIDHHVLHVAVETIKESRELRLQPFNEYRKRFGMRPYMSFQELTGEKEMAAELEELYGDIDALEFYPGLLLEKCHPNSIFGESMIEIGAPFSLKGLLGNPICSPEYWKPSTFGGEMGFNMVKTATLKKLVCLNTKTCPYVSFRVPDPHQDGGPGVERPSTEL
Excerpt: Plasma dilution was not factored in said data values.

COX-2 [1] = target: T2, COX-2 (Canis lupus familiaris, UniProt Q8SPQ9); assay: in vivo; settings: for PGE2 Pg/mL/Well: 2 mg/kg PO 30 min before carrageenan, exudate fluid, group average; for inhibition at 2 mg/kg: dog, po
Experimental: This objective of this study was to monitor in vivo COX-2 activity in a subcutaneously implanted chamber during an induced inflammation. The COX-2 enzyme can be detected by western analysis as early as 5 hours after carrageenan treatments (T. Kirchner et al., J. Pharmacol. Exp. Ther. (1997) 282, 1094-1101). […] Six beagle dogs had polyethylene “whiffle” golf balls approximately 4.2 cm in outer diameter surgically implanted under the skin just behind the shoulder blades.
The experiment was run in two replicates. […] The hair around the ball was shaved and the area was probed to locate a hole in the whiffle ball. This area was then marked and it was sterilized with 2% iodine tincture. […] EF samples were taken at 0, 5, and 24 hours after carrageenan injection.
The column was first washed with 10 mL of 0.1 M phosphate buffer then 10 mL water. The EF was then diluted 1:5 with 0.1 M phosphate buffer and added to the column. The column was washed with 10 mL of the phosphate buffer, then 10 mL of water. Finally, the PGE2 was removed from the column with 2.5 mL 95% ethanol.

[2] = target: T3, COX-1 (derived from bovine aortic endothelial cells) (Bos taurus, UniProt O62664); settings: cited from earlier work
T3 construct: COX-1 (derived from bovine aortic endothelial cells); host or cells: bovine aortic endothelial cells (endogenous)
T3 sequence (O62664 25-600): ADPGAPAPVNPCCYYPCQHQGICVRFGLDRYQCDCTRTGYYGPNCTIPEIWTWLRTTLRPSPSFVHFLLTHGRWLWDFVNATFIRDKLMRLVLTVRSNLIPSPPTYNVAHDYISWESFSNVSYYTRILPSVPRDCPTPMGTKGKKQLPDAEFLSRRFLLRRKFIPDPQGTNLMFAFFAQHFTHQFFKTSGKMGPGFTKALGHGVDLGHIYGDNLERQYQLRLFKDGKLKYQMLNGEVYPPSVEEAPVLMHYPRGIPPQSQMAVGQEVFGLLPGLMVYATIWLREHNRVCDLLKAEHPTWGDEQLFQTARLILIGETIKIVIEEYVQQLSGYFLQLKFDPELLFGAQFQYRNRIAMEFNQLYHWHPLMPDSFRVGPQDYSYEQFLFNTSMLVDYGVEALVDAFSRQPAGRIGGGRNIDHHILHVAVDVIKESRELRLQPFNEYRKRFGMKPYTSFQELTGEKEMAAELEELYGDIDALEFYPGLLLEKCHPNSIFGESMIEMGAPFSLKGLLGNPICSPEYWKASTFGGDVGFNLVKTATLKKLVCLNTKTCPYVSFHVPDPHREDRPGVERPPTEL

COX-2 [3] = target: T2, COX-2; assay: in vivo; settings: for PGE2 Pg/mL/Well: group average; for inhibition at 2 mg/kg / inhibition at 10 mg/kg: dog, po
Experimental: A zero-hour blood sample was collected from all dogs in the study prior to dosing, followed by 1-, 3-, and 6-hour post-dose blood sample collections. […] Test tubes used as controls contained vehicle and were unstimulated by the addition of any agent. A 500 μL sample of blood was added to each of the above-described test tubes, after which they were incubated at 37° C. for one hr in the case of the calcium ionophore-containing test tubes, and overnight in the case of the LPS-containing test tubes. After incubation, 10 μL of EDTA was added to give a final concentration of 0.3%, in order to prevent coagulation of the plasma which sometimes occurs after thawing frozen plasma samples. The incubated samples were centrifuged at 4° C. and the resulting plasma sample of ˜200 μL was collected and stored at −20° C. in polypropylene 96-well plates. In order to determine endpoints for this study, enzyme immunoassay (EIA) kits available from Cayman were used to measure production of TXB2 and PGE2, utilizing the principle of competitive binding of tracer to antibody and endpoint determination by colorimetry.
The data is expressed as treatment group averages in pg/mL of TXB2 and PGE2 produced per sample. Plasma dilution was not factored in said data values.

[4] = 2 mg/kg PO capsule, 0-hour (pre-dose)
[5] = 2 mg/kg PO capsule, 1-hour post-dose
[6] = 2 mg/kg PO capsule, 3-hour post-dose
[7] = 2 mg/kg PO capsule, 6-hour post-dose
[8] = 10 mg/kg PO capsule, 0-hour (pre-dose)
[9] = 10 mg/kg PO capsule, 1-hour post-dose
[10] = 10 mg/kg PO capsule, 3-hour post-dose
[11] = 10 mg/kg PO capsule, 6-hour post-dose

T2 sequence (Q8SPQ9 18-604): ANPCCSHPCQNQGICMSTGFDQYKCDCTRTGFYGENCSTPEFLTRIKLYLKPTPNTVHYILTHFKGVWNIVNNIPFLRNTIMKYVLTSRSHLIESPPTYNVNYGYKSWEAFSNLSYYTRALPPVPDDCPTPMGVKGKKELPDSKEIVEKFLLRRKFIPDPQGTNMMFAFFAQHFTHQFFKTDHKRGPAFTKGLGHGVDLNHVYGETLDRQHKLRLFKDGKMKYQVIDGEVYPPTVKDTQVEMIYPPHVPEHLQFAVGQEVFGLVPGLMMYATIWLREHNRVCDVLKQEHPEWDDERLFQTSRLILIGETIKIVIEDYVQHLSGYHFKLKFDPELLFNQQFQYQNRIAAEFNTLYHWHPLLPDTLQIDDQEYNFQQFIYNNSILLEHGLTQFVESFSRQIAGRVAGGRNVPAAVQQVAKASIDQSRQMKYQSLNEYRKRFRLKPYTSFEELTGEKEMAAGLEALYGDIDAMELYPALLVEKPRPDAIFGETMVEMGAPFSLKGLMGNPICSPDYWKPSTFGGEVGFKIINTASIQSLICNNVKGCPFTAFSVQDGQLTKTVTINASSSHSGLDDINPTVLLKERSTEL

Compound: CC(C(=O)O)c1ccc2c(c1)[nH]c1ccc(Cl)cc12 (racemic) [Carprofen (rac.), 6-chloro-α-methyl-9H-carbazole-2-acetic acid]
- TXB2 Pg/mL/Well (COX-1; [4]): 72 Pg/mL/Well
- TXB2 Pg/mL/Well (COX-1; [5]): 75 Pg/mL/Well
- TXB2 Pg/mL/Well (COX-1; [6]): 66 Pg/mL/Well
- TXB2 Pg/mL/Well (COX-1; [7]): 46 Pg/mL/Well
- TXB2 Pg/mL/Well (COX-1; [8]): 51 Pg/mL/Well
- TXB2 Pg/mL/Well (COX-1; [9]): 31 Pg/mL/Well
- TXB2 Pg/mL/Well (COX-1; [10]): 6 Pg/mL/Well
- TXB2 Pg/mL/Well (COX-1; [11]): 7 Pg/mL/Well
- inhibition at 2 mg/kg (COX-1; 2 mg/kg PO capsule, 1-hour): 0%
- inhibition at 2 mg/kg (COX-1; 2 mg/kg PO capsule, 3-hour): 8%
- inhibition at 2 mg/kg (COX-1; 2 mg/kg PO capsule, 6-hour): 36%
- inhibition at 10 mg/kg (COX-1; 10 mg/kg PO capsule, 1-hour): 39%
- inhibition at 10 mg/kg (COX-1; 10 mg/kg PO capsule, 3-hour): 88%
- inhibition at 10 mg/kg (COX-1; 10 mg/kg PO capsule, 6-hour): 86%
- PGE2 Pg/mL/Well (COX-2 [1]; 0-hour): 6.5 Pg/mL/Well
- PGE2 Pg/mL/Well (COX-2 [1]; 5-hour): 1.9 Pg/mL/Well
- PGE2 Pg/mL/Well (COX-2 [1]; 24-hour): 3.2 Pg/mL/Well
- inhibition at 2 mg/kg (COX-2 [1]; read-out: In vivo COX-2 activity Percent Inhibition, 2 mg/kg PO, 5-hour after carrageenan, group average): 71%
- inhibition at 2 mg/kg (COX-2 [1]; read-out: In vivo COX-2 activity Percent Inhibition, 2 mg/kg PO, 24-hour after carrageenan, group average): 51%
- IC50 ([2]; as shown by Battistini et al., read-out: IC50 (μM) COX-1): 11 µM
- IC50 ([2]; n=9, bovine aortic endothelial cells, read-out: IC50 (μg/mL) COX-1 (converted)): 11 µM
- PGE2 Pg/mL/Well (COX-2 [3]; [4]): 511 Pg/mL/Well
- PGE2 Pg/mL/Well (COX-2 [3]; [5]): 33 Pg/mL/Well
- PGE2 Pg/mL/Well (COX-2 [3]; [6]): 98 Pg/mL/Well
- PGE2 Pg/mL/Well (COX-2 [3]; [7]): 190 Pg/mL/Well
- PGE2 Pg/mL/Well (COX-2 [3]; [8]): 336 Pg/mL/Well
- PGE2 Pg/mL/Well (COX-2 [3]; [9]): 19 Pg/mL/Well
- PGE2 Pg/mL/Well (COX-2 [3]; [10]): 12 Pg/mL/Well
- PGE2 Pg/mL/Well (COX-2 [3]; [11]): 12 Pg/mL/Well
- inhibition at 2 mg/kg (COX-2 [3]; read-out: COX-2 activity Percent Inhibition, 2 mg/kg PO capsule, 1-hour, based on zero hour value): 94%
- inhibition at 2 mg/kg (COX-2 [3]; read-out: COX-2 activity Percent Inhibition, 2 mg/kg PO capsule, 3-hour, based on zero hour value): 81%
- inhibition at 2 mg/kg (COX-2 [3]; read-out: COX-2 activity Percent Inhibition, 2 mg/kg PO capsule, 6-hour, based on zero hour value): 63%
- inhibition at 10 mg/kg (COX-2 [3]; read-out: COX-2 activity Percent Inhibition, 10 mg/kg PO capsule, 1-hour, based on zero hour value): 94%
- inhibition at 10 mg/kg (COX-2 [3]; read-out: COX-2 activity Percent Inhibition, 10 mg/kg PO capsule, 3-hour, based on zero hour value): 96%
- inhibition at 10 mg/kg (COX-2 [3]; read-out: COX-2 activity Percent Inhibition, 10 mg/kg PO capsule, 6-hour, based on zero hour value): 96%
